Assays:
[1] = test system: Nrf2 and HSF1 target genes; experiment: Example 4 target engagement qPCR of cortex tissue; assay type: in vivo, mouse; conditions: normalized to Gapdh
Experimental: This in vivo pharmacology study was designed to test the efficacy of (6aS)-6-methyl-5,6,6a,7-tetrahydro-4H-dibenzo[de,g]quinoline-10,11-diol on the progression of motor and cognitive decline in the TDP-43^Q331K mouse model. In addition, tissue was collected at the end of the experiment for target engagement (gene expression) analysis of Nrf2 and HSF1 target genes.
(§1) Following genotyping, transgenic females were block randomized into three different dosing groups: vehicle once daily, 2.5 mg/kg (6aS)-6-methyl-5,6,6a,7-tetrahydro-4H-dibenzo[de,g]quinoline-10,11-diol twice daily and 5 mg/kg (6aS)-6-methyl-5,6,6a,7-tetrahydro-4H-dibenzo[de,g]quinoline-10,11-diol once daily. The doses were selected based on results of previous internal studies. Animals were weighed daily before dosing and dosed subcutaneously at 10 ml/kg with a solution of 0.5 mg/ml (6aS)-6-methyl-5,6,6a,7-tetrahydro-4H-dibenzo[de,g]quinoline-10,11-diol for the 5 mg/kg dose and 0.25 mg/ml for the 2.5 mg/kg dose. Where animals were dosed twice a day, the doses were at least 6 hours apart and the dosing solution was freshly made for the second dose of the day.
(§2) The study was designed with two main cohorts of mice. One cohort was dosed from 25 days of age until 6 months of age and mice had behavioral testing throughout the study and consisted of 14 mice per group. The other satellite cohort was dosed from 25 days of age until 3 months of age, with no behavioral testing and consisted of 6 mice per group for target engagement and histological assessment. Behavioral tests that were carried out during the experiment were: accelerated rotarod test, gait analysis, and electrophysiology.
Tissue was collected at 24 hours after the final morning dose. All animals were overdosed with an intraperitoneal injection of pentibarital (JML, M042) at the time of tissue collection (2.5 ml/kg). In the 6 month cohort (n=14), 7 animals per group were perfused to fix tissue for histology. For these animals, once animals had lost pedal reflex, the chest cavity was opened and 10 ml of PBS was perfused via the heart, followed by 10 ml of 4% PFA. Brain and spinal cord were extracted and stored in 4% PFA overnight before being changed to PBS. The lumbar section of the spinal cord was dissected and embedded. For the remaining 7 animals per group, once the animals had lost pedal reflex, blood was extracted via a cardiac puncture technique. The blood was collected and stored in 1 ml of RNALater (ThermoFisher). Spinal cords were removed and the upper section of spinal cord was snap frozen in liquid nitrogen for protein analysis, while the lower section was stored in RNALater and stored at −20° C. Cortex was removed and dissected into four parts, the front left segment was stored in RNALater, while the three other sections were snap frozen in liquid nitrogen.
For the 3 month cohort, tissue was collected in a similar way to the snap frozen tissue for 6 month cohort, however where tissue was stored in RNALater for the 6 month cohort, it was processed for RNA extraction immediately in the 3 month cohort.
RNA was extracted from lower spinal cord and cortex using the RNeasy lipid tissue mini kit (Qiagen, 74804) following the manufactures protocol. Briefly tissue was homogenized in a small volume (150 μl) of QIAzol using a hand-held homogenizer in a fume hood. Once homogenized, the total volume of QIAzol was increased to 1 ml. Samples were incubated at room temperature for 5 minutes after which 200 μl of chloroform (Honeywell) was added and samples were shaken vigorously for 15 seconds. Mixed samples were then incubated at room temperature for 3 minutes then centrifuged at 12,000g for 15 minutes at 4° C. in a bench top microcentrifuge.
The upper aqueous phase of the sample was transferred to a fresh labelled tube and 1 volume of 70% ethanol was added. Samples were vortexed and 700 μl of sample was transferred to RNeasy mini spin columns attached to 2 ml collection tubes. […]

[2] = test system: NQO1; experiment: Example 5 western blot protein analysis in induced astrocytes; assay type: cell-based; conditions: human iAstrocytes (CTR, C9orf72, sALS, SOD1 donors), 10 uM, 48 hours treatment
Description: Induced NPCs were generated from adult human fibroblasts from patients who had been diagnosed with ALS and from age-matched healthy controls, using an approach reported previously (Kim et al PNAS, […]. 108(19), 7838-7843; Meyer et al., PNAS, 2014. 111(2), 829-832). Induced NPCs are differentiated into induced astrocytes (iAstrocytes) by culturing the progenitors in iAstrocyte medium for a total of 7 days with a medium change at day 3.
Cells were scraped from 10 cm dishes and cell pellets were lysed in ice cold IP lysis buffer (150 mM NaCl, 50 mM HEPES, 1 mM EDTA, 1 mM DTT, 0.5% (v/v) Triton X-100, protease inhibitor cocktail, pH 8.0) for 15 minutes and further homogenized using a 25-gauge needle and syringe. Protein samples were separated by SDS-Polyacrylamide Gel Electrophoresis and then semi-dry transferred onto nitrocellulose membranes. Membranes were blotted with Anti-NQO1—1:1000 (5% milk/TBST); rabbit; abcam; ab34173 at 4° C. overnight and anti-Beta-actin—1:5,000 (5% milk/TBST); mouse; abcam; ab6276 clone AC-15 at 4° C. overnight.

[3] = test system: TDP-43^Q331K mouse model; experiment: Example 4 electrophysiology: compound muscle action potential (CMAP); assay type: in vivo; conditions: TDP-43^Q331K mice
Experimental: as §1, §2
Electrophysiological assessment of compound action muscle potential (CMAP) and repetitive stimulation was carried out at 6 weeks, 3 months and 6 months of age.
Mice were anesthetized using gaseous isoflurane and then maintained under gaseous anesthesia using a nose cone for the duration of the experiment. Body temperature was maintained with a heat pad. The fur from the lower left limb was removed using an electric razor followed by hair removal cream in order to allow skin contact of the ring electrodes. Ring electrodes were covered in electrical paste and were placed around the ankle and thigh area of the shaved limb. The rings were tightened so that there were no air gaps between the skin and electrodes but not so tight that blood flow was altered. A grounding electrode was placed into the base of the tail and stimulating electrodes were placed higher on the leg as near as possible to the sciatic nerve.
CMAPs were acquired by pulsing an electrical wave of […] duration to the sciatic notch. The position of the electrodes was tested prior to the final pulse in order to make sure they were placed correctly by visualizing the outcome of the pulse. The stimulation current was then increased until no further increase in CMAP was seen.

[4] = Example 4 mouse weights in TDP-43^Q331K mouse model; assay type: in vivo; conditions: TDP-43^Q331K mice
Experimental: as §1, §2
Animals were weighed daily before dosing to calculate dose volume. […]

[5] = 3 months, 2.5 mg/kg dosing group

mouse weight compared to the vehicle dosing group ([4]; 3-month cohort, either dosing group (2.5 mg/kg twice daily, 5 mg/kg once daily s.c.)): no significant difference
mouse weight compared to the vehicle dosing group ([4]; 6-month cohort, 2.5 mg/kg dosing group, from 121 days of age until the end of the study): significant decrease
Structure (SMILES): CN1CCc2cccc3c2[C@@H]1Cc1ccc(O)c(O)c1-3 [(6aS)-6-methyl-5,6,6a,7-tetrahydro-4H-dibenzo[de,g]quinoline-10,11-diol]
GSR relative mRNA level compared to vehicle [1, 5]: upregulation
Nqo1 relative mRNA level compared to vehicle [1, 5]: upregulation
Osgin1 relative mRNA level compared to vehicle [1, 5]: upregulation
GSR relative mRNA level compared to vehicle ([1]; 3 months, 5 mg/kg dosing group): significant upregulation
Hspa1a relative mRNA level compared to vehicle ([1]; 3 months, 5 mg/kg dosing group): significant upregulation
Nqo1 relative mRNA level compared to vehicle ([1]; 3 months, 5 mg/kg dosing group): significant upregulation
Sqstm1 relative mRNA level compared to vehicle ([1]; 3 months, 5 mg/kg dosing group): significant upregulation
Hspa1a relative mRNA level compared to vehicle ([1]; 6 months, 2.5 mg/kg twice daily): significant upregulation
Hspa1a relative mRNA level compared to vehicle ([1]; 6 months, 5 mg/kg daily): significant upregulation
NQO1 protein (western blot quantification) compared to DMSO treatment [2]: significant increase
relative CMAP at 6 months (based on individual CMAP at 3 months) compared to the vehicle group ([3]; 2.5 mg/kg dosing group): significant improvement
relative CMAP at 6 months (based on individual CMAP at 3 months) compared to the vehicle group ([3]; 5 mg/kg dosing group): significant improvement
CMAP compared to the vehicle dosing group ([3]; 3 months of age, 5 mg/kg dosing group): significant decrease
CMAP compared to vehicle dosed animals ([3]; 6 months of age, both dosing groups (2.5 mg/kg twice daily, 5 mg/kg once daily)): significant increase
CMAP, between the different dosing groups ([3]; 6 weeks of age): no significant difference

From patent US20220265635A1, “TREATMENT OF NEUROLOGICAL DISEASE” (Aclipse One Inc., priority 2018, published 2022)
